Measured values taken from the NIST ThermoML archive (doi:10.1021/je0601356).
Values joined by “and” are separate entries in the source; they are usually repeats but may differ in a detail not shown here. Equal values may be shown once.

Details: Liquid, Vibrating wire viscometry

FC(F)C(F)(F)F [pentafluoroethane]
Details | viscosity
253.99 K, 1440 kPa | 0.2707 mPa·s
253.99 K, 1450 kPa | 0.271 mPa·s
253.99 K, 1460 kPa | 0.271 mPa·s
253.99 K, 1470 kPa | 0.2711 mPa·s
253.99 K, 1480 kPa | 0.2707 mPa·s
253.99 K, 3250 kPa | 0.2794 mPa·s
253.99 K, 3280 kPa | 0.2794 mPa·s and 0.279 mPa·s and 0.2789 mPa·s
253.99 K, 5050 kPa | 0.2876 mPa·s
253.99 K, 5060 kPa | 0.2874 mPa·s
253.99 K, 5100 kPa | 0.2875 mPa·s
253.99 K, 5140 kPa | 0.2875 mPa·s
253.99 K, 7350 kPa | 0.2984 mPa·s
253.99 K, 7360 kPa | 0.2984 mPa·s
253.99 K, 7380 kPa | 0.2982 mPa·s
263.23 K, 1430 kPa | 0.2381 mPa·s
263.23 K, 1440 kPa | 0.2373 mPa·s and 0.2375 mPa·s
263.23 K, 1460 kPa | 0.2382 mPa·s
263.23 K, 1480 kPa | 0.2377 mPa·s
263.23 K, 3050 kPa | 0.2452 mPa·s
263.23 K, 3060 kPa | 0.2453 mPa·s
263.23 K, 3070 kPa | 0.2456 mPa·s
263.23 K, 5030 kPa | 0.2531 mPa·s
263.23 K, 5050 kPa | 0.2529 mPa·s
263.23 K, 5060 kPa | 0.2535 mPa·s
263.23 K, 5070 kPa | 0.2538 mPa·s
263.23 K, 5080 kPa | 0.2538 mPa·s
263.23 K, 5110 kPa | 0.2534 mPa·s
263.23 K, 7530 kPa | 0.2643 mPa·s
263.23 K, 7560 kPa | 0.2645 mPa·s
263.23 K, 7610 kPa | 0.2645 mPa·s
263.23 K, 7640 kPa | 0.2646 mPa·s
263.23 K, 9770 kPa | 0.2743 mPa·s
263.23 K, 9800 kPa | 0.274 mPa·s
263.23 K, 9820 kPa | 0.2745 mPa·s
273.08 K, 1460 kPa | 0.2076 mPa·s
273.08 K, 1480 kPa | 0.2075 mPa·s
273.08 K, 1490 kPa | 0.2074 mPa·s
273.08 K, 1500 kPa | 0.2074 mPa·s and 0.2073 mPa·s
273.08 K, 2940 kPa | 0.2147 mPa·s
273.08 K, 2950 kPa | 0.2145 mPa·s
273.08 K, 2990 kPa | 0.2145 mPa·s
273.08 K, 5020 kPa | 0.2234 mPa·s
273.08 K, 5030 kPa | 0.2229 mPa·s and 0.2233 mPa·s
273.08 K, 5040 kPa | 0.2224 mPa·s and 0.2226 mPa·s
273.08 K, 7480 kPa | 0.2324 mPa·s
273.08 K, 7490 kPa | 0.2327 mPa·s and 0.2324 mPa·s
273.08 K, 7510 kPa | 0.2324 mPa·s
273.08 K, 7520 kPa | 0.2326 mPa·s
273.08 K, 7530 kPa | 0.2324 mPa·s
273.08 K, 9680 kPa | 0.2416 mPa·s
273.08 K, 9690 kPa | 0.2419 mPa·s and 0.2421 mPa·s
273.08 K, 9710 kPa | 0.2416 mPa·s
283.29 K, 1550 kPa | 0.1781 mPa·s
283.29 K, 1580 kPa | 0.1789 mPa·s
283.29 K, 1590 kPa | 0.1788 mPa·s
283.29 K, 1600 kPa | 0.1785 mPa·s
283.29 K, 1620 kPa | 0.1783 mPa·s
283.29 K, 3000 kPa | 0.1852 mPa·s
283.29 K, 3010 kPa | 0.185 mPa·s
283.29 K, 3030 kPa | 0.1852 mPa·s
283.29 K, 3060 kPa | 0.185 mPa·s
283.29 K, 5190 kPa | 0.1957 mPa·s
283.29 K, 5220 kPa | 0.1955 mPa·s [middle of 4 runs]
283.29 K, 5230 kPa | 0.1953 mPa·s
283.29 K, 5270 kPa | 0.1956 mPa·s
283.29 K, 7590 kPa | 0.2059 mPa·s
283.29 K, 7600 kPa | 0.2057 mPa·s [middle of 5 runs]
283.29 K, 10040 kPa | 0.2155 mPa·s and 0.2159 mPa·s
283.29 K, 10050 kPa | 0.2155 mPa·s
283.29 K, 10070 kPa | 0.2155 mPa·s
283.29 K, 10080 kPa | 0.2157 mPa·s
293.13 K, 2020 kPa | 0.1577 mPa·s
293.13 K, 2030 kPa | 0.1581 mPa·s
293.13 K, 2070 kPa | 0.1583 mPa·s
293.13 K, 2100 kPa | 0.1584 mPa·s
293.13 K, 2110 kPa | 0.1583 mPa·s
293.13 K, 2140 kPa | 0.1583 mPa·s
293.13 K, 5080 kPa | 0.172 mPa·s
293.13 K, 5100 kPa | 0.1716 mPa·s
293.13 K, 5130 kPa | 0.1719 mPa·s and 0.1715 mPa·s
293.13 K, 7530 kPa | 0.1818 mPa·s and 0.1813 mPa·s and 0.1811 mPa·s
293.13 K, 9990 kPa | 0.1918 mPa·s
293.13 K, 10030 kPa | 0.1915 mPa·s
293.13 K, 10040 kPa | 0.1917 mPa·s [middle of 4 runs]
293.13 K, 10050 kPa | 0.1914 mPa·s
